Data reported in US7638526B2, “Azetidine derivatives useful in treating pain, diabetes and disorders of lipid metabolism” (Schering Corporation, priority 2006, dated 2009).

The compounds below were run against T1, human Cav3.2 (Homo sapiens, UniProt O95180) (assay: Ionworks screen for hCaV3.2 (IonWorks HT voltage clamp, T-type calcium current)). Settings: IonWorks (IW) screen.
T1 construct: expressed in transfected cells
T1 sequence (O95180 whole entry): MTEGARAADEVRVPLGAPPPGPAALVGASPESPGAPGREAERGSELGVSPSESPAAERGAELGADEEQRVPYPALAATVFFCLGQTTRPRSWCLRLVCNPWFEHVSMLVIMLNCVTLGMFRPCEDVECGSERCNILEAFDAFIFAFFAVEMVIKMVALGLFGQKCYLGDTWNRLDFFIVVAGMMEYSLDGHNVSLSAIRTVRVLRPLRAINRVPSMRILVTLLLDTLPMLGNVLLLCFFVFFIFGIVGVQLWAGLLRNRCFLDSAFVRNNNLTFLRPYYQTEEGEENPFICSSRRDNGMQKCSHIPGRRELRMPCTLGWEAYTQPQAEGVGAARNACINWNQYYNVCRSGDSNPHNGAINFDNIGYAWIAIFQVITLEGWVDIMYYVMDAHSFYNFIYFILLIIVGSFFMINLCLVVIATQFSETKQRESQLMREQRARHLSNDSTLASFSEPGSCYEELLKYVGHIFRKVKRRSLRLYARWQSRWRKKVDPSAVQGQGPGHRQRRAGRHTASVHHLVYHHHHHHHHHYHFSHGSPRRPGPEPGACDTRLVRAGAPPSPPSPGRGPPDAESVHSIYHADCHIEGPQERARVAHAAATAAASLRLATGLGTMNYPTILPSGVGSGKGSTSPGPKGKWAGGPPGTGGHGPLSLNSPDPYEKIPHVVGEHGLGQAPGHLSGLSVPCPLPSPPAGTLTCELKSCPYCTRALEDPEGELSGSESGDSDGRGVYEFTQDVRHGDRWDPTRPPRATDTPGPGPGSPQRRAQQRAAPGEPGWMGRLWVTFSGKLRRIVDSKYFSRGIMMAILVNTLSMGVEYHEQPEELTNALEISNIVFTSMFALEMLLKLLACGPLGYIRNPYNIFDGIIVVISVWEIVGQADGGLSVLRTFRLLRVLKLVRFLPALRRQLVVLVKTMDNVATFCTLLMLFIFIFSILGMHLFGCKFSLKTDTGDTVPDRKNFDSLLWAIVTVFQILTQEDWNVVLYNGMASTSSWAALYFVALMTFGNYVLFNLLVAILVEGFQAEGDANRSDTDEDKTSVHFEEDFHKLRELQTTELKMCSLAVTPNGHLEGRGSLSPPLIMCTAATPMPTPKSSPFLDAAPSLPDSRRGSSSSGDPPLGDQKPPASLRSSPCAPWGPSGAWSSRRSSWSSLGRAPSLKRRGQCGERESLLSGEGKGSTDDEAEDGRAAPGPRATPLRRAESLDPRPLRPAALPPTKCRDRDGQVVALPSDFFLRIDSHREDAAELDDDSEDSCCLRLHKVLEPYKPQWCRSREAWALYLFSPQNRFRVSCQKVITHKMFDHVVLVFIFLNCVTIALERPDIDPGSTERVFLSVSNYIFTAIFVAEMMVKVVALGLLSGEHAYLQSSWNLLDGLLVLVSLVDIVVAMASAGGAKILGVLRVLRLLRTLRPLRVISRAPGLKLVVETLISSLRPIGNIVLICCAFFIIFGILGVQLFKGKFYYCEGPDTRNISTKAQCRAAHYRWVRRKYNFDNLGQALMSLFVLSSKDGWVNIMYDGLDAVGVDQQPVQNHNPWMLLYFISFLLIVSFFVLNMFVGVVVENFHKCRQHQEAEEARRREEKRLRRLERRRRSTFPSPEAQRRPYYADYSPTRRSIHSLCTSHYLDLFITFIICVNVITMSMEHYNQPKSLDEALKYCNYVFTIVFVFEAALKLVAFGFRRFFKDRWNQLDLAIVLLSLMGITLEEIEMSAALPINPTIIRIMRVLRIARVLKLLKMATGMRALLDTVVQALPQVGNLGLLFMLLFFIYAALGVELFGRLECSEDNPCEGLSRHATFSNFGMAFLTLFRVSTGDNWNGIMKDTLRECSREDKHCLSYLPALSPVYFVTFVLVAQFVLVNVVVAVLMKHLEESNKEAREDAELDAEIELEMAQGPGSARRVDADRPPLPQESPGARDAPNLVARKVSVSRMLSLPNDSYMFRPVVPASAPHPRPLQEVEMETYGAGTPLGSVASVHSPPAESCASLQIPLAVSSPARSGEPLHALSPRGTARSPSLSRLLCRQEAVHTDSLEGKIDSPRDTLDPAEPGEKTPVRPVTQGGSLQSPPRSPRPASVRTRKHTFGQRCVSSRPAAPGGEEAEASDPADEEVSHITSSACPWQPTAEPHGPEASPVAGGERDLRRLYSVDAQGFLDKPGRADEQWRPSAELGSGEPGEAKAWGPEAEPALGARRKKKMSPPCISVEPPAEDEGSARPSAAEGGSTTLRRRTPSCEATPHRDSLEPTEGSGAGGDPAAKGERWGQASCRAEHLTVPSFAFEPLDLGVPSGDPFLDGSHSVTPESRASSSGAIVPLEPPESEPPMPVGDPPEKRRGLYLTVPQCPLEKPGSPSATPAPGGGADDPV
Assay type: cell-based
Excerpt: (§1) Functional evaluation of voltage-gated ion channels was used to determine potency and/or single concentration efficacy of proprietary compounds. Two different methodologies were used to measure ion currents: the IonWorks HT (Molecular Devices, Sunnyvale, Calif.) a moderate throughput voltage clamp screening platform that utilizes 96-well compound plates and conventional whole cell patch clamp for lower throughput, higher fidelity determinations.
HEK cells were transiently transfected and then selected for stable heterologous expression of different channel proteins of interest. Calcium channel cell lines expressed a resting potassium current, human Kir2.1, and the pore forming α-subunit of voltage-gated calcium channels. In the case of Cav2.1 cells the auxiliary subunit, β2a, was also expressed. Calcium channel lines that were used to generate the data in this document expressed either human Cav3.2, rat Cav3.2 or human Cav2.1. The human heart sodium channel, hNav1.5, was stably expressed in CHO cells. These cells were licensed from the University of Pennsylvania.
Cell lines were grown at 37° C. in humidified incubators, equilibrated with 95% air/5% CO2. CHO cells were grown in Ham's F-12 medium. HEK cells were grown in DMEM. All media were supplemented with 10% heat-inactivated fetal bovine serum, penicillin, streptomycin and appropriate selection antibiotics (zeocin, geneticin and/or hygromycin). Cells were passaged when 80% confluent or less.
Ionworks Screen for hCaV3.2
The extracellular buffer for experiments using this instrument contained the following (mM) (NaCl 125, HEPES 10, KCl 5.4, CaCl2 1.8, MgCl2 1.8, 0.2 BaCl2 pH 7.35). The IonWorks uses amphotericin to gain electrical access to the cell interior. The internal solution contained (mM concentrations): 130 K-gluconate, 20 KCl, 5 HEPES-KOH (pH 7.25), 2 CaC12, 1 MgCl2. Amphotericin added at 5 mg in 65 ml when present (in 650 μl DMSO). All internal and external solutions for this experiment contain 1% DMSO. Cells were acutely trypsinized from a T-75 flask and resuspended in extracellular buffer at a density of 2×10^5 cells/ml.
Experiments were performed at room temperature, Transmembrane potential was held at −100 mV for 5 seconds prior to running the voltage protocol. During this time leak currents were measured during a step to −110 mV (200 milliseconds). T-type calcium currents were activated with a 250 millisecond step to −20 mV. This depolarization step was repeated for a total of 10 pulses with an interpulse interval of 1 second. Data were excluded if the following acceptance criteria were not met: total resistance for the pre-compound scan >65 MΩ, pre-compound current >250 pA, post compound total resistance >50 MΩ.
T-type currents were measured as the peak inward current minus the current at the end of the 250 msec step to −20 mV. After the recoding configuration was established there was a pre-compound measurement of current amplitude Compound was added as a 3× solution containing 1% DMSO. After incubation with compound for 10 minutes currents were measured again. The current amplitude after compound addition was divided by the pre-compound current for pulse 10 to determine the traction of current remaining after compound addition. For each compound, 8-point concentration-effect relationships were measured with ½ log serial dilutions.
Compound `CC[C@H](C)[C@H](NC(=O)N1CCC2(CC1)CN(CCC(C)C)C2c1ccc(F)cc1)C(=O)OC` (some centres unmarked) has an IC50 of 58 nM.
In the case of `CC(C)CCN1CC2(CCN(C(=O)NC34CC5CC(CC(C5)C3)C4)CC2)C1c1ccc(F)cc1` (centres unmarked), the IC50 is reported as 68 nM.
Compound `CC(C)CCN1CC2(CCN(C(=O)Nc3cc(F)cc(F)c3)CC2)C1c1ccc(F)cc1` (centres unmarked) has an IC50 of 70 nM.
For `CC[C@H](C)[C@H](NC(=O)N1CCC2(CC1)CN(C(C)C)C2c1ccc(-c2ccccc2)cc1)C(=O)OC` (some centres unmarked), the IC50 was 76 nM.
`CC[C@H](C)[C@H](NC(=O)N1CCC2(CC1)CN(C(C)C)C2c1ccc(Br)cc1)C(=O)OC` (single isomer, unassigned) showed an IC50 of 24 nM.
Compound `CC(C)N1CC2(CCN(C(=O)Nc3cccc(Cl)c3)CC2)C1c1ccc(Cl)cc1` (single isomer, unassigned) has an IC50 of 38 nM.
Compound `CC(C)N1CC2(CCN(C(=O)Nc3cc(F)cc(F)c3)CC2)C1c1ccc(Br)cc1` (single isomer, unassigned) has an IC50 of 44 nM.
For `CC(C)N1CC2(CCN(C(=O)Nc3ccc(Cl)cc3)CC2)C1c1ccc(Cl)cc1` (single isomer, unassigned), the IC50 was 49 nM.
`CC(C)N1CC2(CCN(C(=O)Nc3cccc(C#N)c3)CC2)C1c1ccc(Cl)cc1` (single isomer, unassigned) showed an IC50 of 50 nM.
For `CC(C)N1CC2(CCN(C(=O)Nc3cccc(F)c3)CC2)C1c1ccc(Br)cc1` (single isomer, unassigned), the IC50 was 58 nM.
In the case of `CC(C)N1CC2(CCN(C(=O)Nc3cccc(F)c3)CC2)C1c1ccc(Cl)cc1` (single isomer, unassigned), the IC50 is reported as 64 nM.
In the case of `CC[C@H](C)[C@H](NC(=O)N1CCC2(CC1)CN(C(C)C)C2c1ccc(Cl)cc1)C(=O)OC(C)(C)C` (single isomer, unassigned), the IC50 is reported as 85 nM.
`O=C(Nc1cc(F)cc(F)c1)N1CCC2(CC1)CN(c1ccc(F)c(Cl)c1)C2c1ccccn1` (single isomer, unassigned) gave an IC50 of 60 nM.
`CC(C)CCN1CC2(CCN(C(=O)Nc3cc(F)cc(F)c3)CC2)C1c1ccc(F)cc1` (single isomer, unassigned) showed an IC50 of 76 nM.
For `CC[C@H](C)[C@H](NC(=O)N1CCC2(CC1)CN(CCC(C)C)C2c1ccc(F)cc1)C(=O)OC` (single isomer, unassigned), the IC50 was 45 nM.

Each compound was assayed against T2, human GPR119 (Homo sapiens, UniProt Q8TDV5) (assay: GPR119 screening assay (LANCE cAMP, HEK 293 cells stably transfected with human GPR119)). Settings: HEK 293 cells stably transfected with human GPR119, LANCE cAMP; read-out: GPR 119 cAMP EC50.
T2 construct: expressed in transfected cells
T2 sequence (Q8TDV5 1-335): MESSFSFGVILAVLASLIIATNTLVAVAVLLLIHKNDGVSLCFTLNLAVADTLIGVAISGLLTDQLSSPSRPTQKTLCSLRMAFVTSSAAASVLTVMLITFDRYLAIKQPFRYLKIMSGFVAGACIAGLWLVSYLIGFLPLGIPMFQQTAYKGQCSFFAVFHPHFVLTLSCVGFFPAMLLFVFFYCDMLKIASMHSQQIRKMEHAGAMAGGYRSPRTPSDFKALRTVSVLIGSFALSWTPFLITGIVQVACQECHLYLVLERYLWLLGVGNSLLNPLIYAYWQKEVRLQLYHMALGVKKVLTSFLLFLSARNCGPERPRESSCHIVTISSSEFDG
Assay type: cell-based
`COc1cc(C(=O)N2CCC3(CC2)CN(c2ccccc2F)C3c2ccc(Cl)cc2)cc(OC)c1OC` (centres unmarked) was tested, and the EC50 was 516 nM.
Work on `COc1cc(C(=O)N2CCC3(CC2)CN(CC(C)C)C3c2ccccc2)cc(OC)c1OC` (centres unmarked) yielded an EC50 of 882 nM.
For `COc1cc(C(=O)N2CCC3(CC2)CN(Cc2ccc(F)cc2F)C3c2ccc(F)cc2)cc(OC)c1OC` (centres unmarked), the EC50 was 1200 nM.
Work on `COc1cc(C(=O)N2CCC3(CC2)CN(Cc2ccccc2Cl)C3c2ccccc2)cc(OC)c1OC` (centres unmarked) yielded an EC50 of 1260 nM.
`O=C(c1ccc2c(c1)OCCCO2)N1CCC2(CC1)CN(Cc1ccc(F)cc1F)C2c1ccc(F)cc1` (centres unmarked) showed an EC50 of 1300 nM.
Compound `COc1cc(C(=O)N2CCC3(CC2)CN(c2ccc(C)cc2)C3c2ccc(Cl)cc2)cc(OC)c1OC` (centres unmarked) has an EC50 of 1340 nM.

What follows are compounds tested against T1, human Cav3.2 (assay: Conventional whole cell patch clamp, hCav3.2 current). Settings: values marked * in Table 10; voltage clamp assay.
Assay type: cell-based
Excerpt: as §1
HEK cells were transiently transfected and then selected for stable heterologous expression of different channel proteins of interest. Calcium channel cell lines expressed a resting potassium current, human Kir2.1, and the pore forming α-subunit of voltage-gated calcium channels. In the case of Cav2.1 cells the auxiliary subunit, β2a, was also expressed. […]
The holding potential was −100 mV for all protocols. […] Cav3.2 currents were measured as the peak current 10-30 milliseconds after the voltage was stepped to −35 mV. […] For hCav2.1 currents were activated with a 200 millisecond step to 0 mV. hCav2.1 currents were measured from the leak-subtracted traces as the average current between 190 and 200 milliseconds after the step to 0 mV. […] Sodium currents were measured from leak subtracted traces as the peak transient inward current.
All drug effects were measured after a steady-state effect was achieved. […]
Work on `CC(C)CCN1CC2(CCN(C(=O)NC34CC5CC(CC(C5)C3)C4)CC2)C1c1ccc(F)cc1` (centres unmarked) yielded an IC50 of 202 nM.
For `CC[C@H](C)[C@H](NC(=O)N1CCC2(CC1)CN(C(C)C)C2c1ccc(Br)cc1)C(=O)OC` (single isomer, unassigned), the IC50 was 82 nM.
